Test results taken from US20260256741A1, “ANTICANCER MALEIMIDE DERIVATIVES FOR USE WITH IMMUNE CHECKPOINT BLOCKADE” (BROWN UNIVERSITY, priority 2022, published 2026).

Columns and labels:
Type in all cases: cell-based, human
[1] = tested on: SW480 MSS CRC cells; assay: Multicolor co-culture of SW480 CRC cells and TALL-104 T cells, EthD-1 dead cells; conditions: for percentage of dead cells out of total cells (average, normalized): 24 hours, 1:1 E:T
Method: 10,000 HCT-116, SW480, or HT-29 cells were plated per well in a clear-bottom, black-walled 48-well tissue culture plate and were allowed to adhere overnight. […] CRC cells were labeled using CellTracker™ Green CMFDA (5-chloromethylfluorescein diacetate), immune cells (NK-92, TALL-104) were labeled using CellTracker™ Blue CMAC Dye (7-amino-4-chloromethylcoumarin), and ethidium homodimer-1 (EthD-1) was used as a marker of cell death (Invitrogen, Waltham, MA). 10× images were captured using a Nikon Ti-U Inverted Fluorescence Microscope and NIS-Elements F Package imaging software 3.22.00 Build 710 (Nikon Instruments Inc, USA). The number of red/green color cells in random fields was determined using thresholding and particle analysis in the Fiji modification (RRID: SCR_002285) of ImageJ and expressed as a dead/live cell ratio. Normalization was carried out by subtracting the percentage of cell death due to drug or vehicle control (DMSO) only from the percentage of dead cells observed in the co-culture of tumor and immune cells treated with the drug. At least 100 cells were evaluated per sample, with 3 independent replicates. Statistical analysis was done using GraphPad Prism 9 (RRID: SCR_002798).

[2] = tested on: HT-29 GFP+ cells; assay: Single-color GFP+ immune cell co-culture, HT-29; conditions: 48 hours
Method: 50,000 HT-29 or HCT 116 cells were seeded in a 12-well tissue culture plate and allowed to adhere overnight. They were then transduced with lentivirus containing the plasmid pLenti_CMV_GFP_Hygro [pLenti CMV GFP Hygro (656-4) was a gift from Eric Campeau & Paul Kaufman (Addgene viral prep #17446-LV; RRID: Addgene_17446)] at a multiplicity of infection of 10 with 8 μg/mL polybrene (hexadimethrine bromide [Cat #107689, Sigma Aldrich, St. Louis, MO, USA) for 24 hours before washing with PBS and replacing with fresh medium (49). The cells were then sorted for GFP-positivity using a BD FACSAria™ III Cell Sorter (RRID: SCR_016695).
5000 HT-29 GFP+ or HCT 116 GFP+ cells were plated per well in a clear-bottom, black-walled 96-well tissue culture plate and were allowed to adhere overnight. Cells were subsequently treated with DMSO, 5 μM elraglusib, and/or 5000 TALL-104 or NK-92 cells (for an effector-to-tumor ratio of 1:1) for 48 hours. Nine images were taken per well at 10× magnification using a Molecular Devices ImageXpress® Confocal HT.ai High-Content Imaging System and quantified for the number of GFP+ objects using the MetaXpress (RRID: SCR_016654) software (Molecular Devices, San Jose, CA, USA). 40× Images were also taken at 24 hours for representative images of cellular morphology changes. Statistical analysis was done using GraphPad Prism 9 (RRID: SCR_002798).

[3] = tested on: HT-29 cells; assay: Microarray gene expression analysis, HT-29
Method: (§1) A total of 0.5×10^6 tumor cells (HCT-116, HT-29, KM12C) were plated in a 6-well plate and allowed to adhere overnight before 24-hour treatment as indicated. 1×10^6 immune cells (NK92, TALL-104) were plated and treated with elraglusib as indicated for 24 hours. RNA was isolated from cell pellets in batches of 6 using an RNeasy Plus Mini Kit (Cat #74134, Qiagen, Hilden, Germany). Acceptable RNA concentration and quality were verified with Nanodrop and Bioanalyzer measurements. GeneChip™ Human Transcriptome Array 2.0 assays were conducted according to manufacturer instructions in two batches using randomized samples to limit batch effects (Cat #902162, Applied Biosystems, Waltham, MA, USA). Applied Biosystems Transcriptomic Analysis Console (TAC) software (RRID: SCR_016519) was used to calculate fold changes in gene expression relative to the untreated control cells. Values were considered statistically significant for p values <0.05.

[4] = tested on: NK-92 cells; assay: Microarray gene expression analysis, NK-92; conditions: IC-50 concentration (1 μM), 24 hours; FC cutoff >1.5, <−1.5, p<0.05
Method: as §1

[5] = tested on: TALL-104 cells; assay: 10x single-cell sequencing, TALL-104; conditions: 1 μM, 24 hours vs DMSO
Method: (§2) Single cells were captured and 3′ single-cell gene expression libraries were conducted (Next GEM v3.1) using the 10× Genomics Chromium system by SingulOmics (SingulOmics, New York, NY, USA). Gene expression libraries were sequenced with ~200 million PE150 reads per sample on Illumina (RRID: SCR_016387) NovaSeq (Illumina, Inc., San Diego, CA, USA). After sequencing clean reads were then analyzed with human reference genome GRCh38 using Cell Ranger v6.1.2 ([RRID: SCR_017344],10× Genomics, Pleasanton, CA, USA). Data were analyzed and visualized using Loupe Browser ([RRID: SCR_018555], 10× Genomics, Pleasanton, CA, USA).

[6] = tested on: NK-92 cells; assay: 10x single-cell sequencing, NK-92; conditions: 1 μM, 24 hours vs DMSO
Method: as §2

Question: With `Cn1cc(C2=C(c3coc4ccc(F)cc34)C(=O)NC2=O)c2cc3c(cc21)OCO3` [elraglusib, 3-(5-fluorobenzofuran-3-yl)-4-(5-methyl-5H-[1,3]dioxolo[4,5-f]indol-7-yl)-1H-pyrrole-2,5-dione] as the compound, how does the “percentage of dead cells out of total cells (average, normalized)” value ([1]; co-culture with TALL-104, 5 μM) read?
Answer: 60%

Question: What about the “percentage of dead cells out of total cells (average, normalized)” value ([1]; co-culture with TALL-104, 10 μM) of the same compound?
Answer: 65%

Question: And the “tumor cell death in SW480 monocultures” value ([1]; drug only, no immune cells)?
Answer: limited tumor cell death

Question: What about the “percentage of dead cells (average, normalized)” value ([1]; tumor cells pre-treated with 5 μM for 24 hours, then 24-hour co-culture with TALL-104) of the same compound?
Answer: 65%

Question: What about the tumor cell death ([2]; 5 μM elraglusib and NK-92 vs immune cell only and DMSO only) of the same compound?
Answer: increased tumor cell death

Question: What about the tumor cell death ([2]; 5 μM elraglusib and TALL-104 vs drug-only or T cell-only) of the same compound?
Answer: increased tumor cell death

Question: What about the “NCR3LG1 (B7-H6) gene expression fold change” value ([3]; 24 hours vs DMSO) of the same compound?
Answer: 1.78 FC

Question: What about the “downregulated genes in VEGFA-VEGFR2 signaling pathway” value ([3]; 24 hours vs DMSO) of the same compound?
Answer: 37

Question: And the “differentially expressed genes post-treatment” value ([3]; IC-50 concentration (1 μM), 24 hours, FC cutoff >1.5, <−1.5, p<0.05)?
Answer: 2,307

Question: What about the “differentially expressed genes post-treatment” value [4] of the same compound?
Answer: 61

Question: What about the “immune cell activation marker CD69 expression” value [5] of the same compound?
Answer: increase

Question: What about the “immune cell chemoattractant CXCR4 expression” value [5] of the same compound?
Answer: increase

Question: What about the “immunosuppressive marker CHI3L1 expression” value [5] of the same compound?
Answer: decrease

Question: And the “immune cell activation marker CD69 expression” value [6]?
Answer: increase

Question: What about the “immune cell attractant CCL4 expression” value [6] of the same compound?
Answer: increase

Question: And the “immunosuppressive marker CHI3L1 expression” value [6]?
Answer: decrease
